According to PubChem BioAssay AID200 (DTP/NCI, 2004):
Several values for one entry are separate records, joined by “and”; a condition that tells them apart may be missing. Identical values can stand only once. Toxic doses and inconclusive results are not listed.

Test system: B6C3F1 mice, B16 melanoma ip, median survival T/C
Assay: NCI In Vivo Anticancer Drug Screen. Data for tumor model B16 Melanoma (intraperitoneal) in B6C3F1 mice
Conditions: endpoint: median survival time, higher = longer survival
Method: The antitumor activity of compounds was measured in mice bearing transplantable tumors. Survival or tumor size were measured and the results are expressed as the measurement made in the treated group (T) divided by the measurement made in the vehicle treated control group (C). The tumor model used in this assay is B16 Melanoma (intraperitoneal) in B6C3F1 mice

[1] = dose: 12.5 mg/kg/injection, schedule: Q01DX009 (ip), vehicle: Klucel (hydroxypropylcellulose) (HPC)
[2] = dose: 25.0 mg/kg/injection, schedule: Q01DX009 (ip), vehicle: Klucel (hydroxypropylcellulose) (HPC)
[3] = dose: 50.0 mg/kg/injection, schedule: Q01DX009 (ip), vehicle: Klucel (hydroxypropylcellulose) (HPC)
[4] = dose: 100.0 mg/kg/injection, schedule: Q01DX009 (ip), vehicle: Klucel (hydroxypropylcellulose) (HPC)
[5] = dose: 200.0 mg/kg/injection, schedule: Q01DX009 (ip), vehicle: Klucel (hydroxypropylcellulose) (HPC)
[6] = dose: 6.25 mg/kg/injection, schedule: Q01DX009 (ip), vehicle: Klucel (hydroxypropylcellulose) (HPC)
[7] = dose: 6.25 mg/kg/injection, schedule: Q01DX009 (ip), vehicle: saline
[8] = dose: 25.0 mg/kg/injection, schedule: Q01DX009 (ip), vehicle: saline
[9] = dose: 50.0 mg/kg/injection, schedule: Q01DX009 (ip), vehicle: saline
[10] = dose: 100.0 mg/kg/injection, schedule: Q01DX009 (ip), vehicle: saline
[11] = dose: 200.0 mg/kg/injection, schedule: Q01DX009 (ip), vehicle: saline
[12] = dose: 400.0 mg/kg/injection, schedule: Q01DX009 (ip), vehicle: saline
[13] = dose: 400.0 mg/kg/injection, schedule: Q01DX009 (ip), vehicle: Klucel (hydroxypropylcellulose) (HPC)
[14] = dose: 12.5 mg/kg/injection, schedule: Q01DX009 (ip), vehicle: saline with Tween-80
[15] = dose: 25.0 mg/kg/injection, schedule: Q01DX009 (ip), vehicle: saline with Tween-80
[16] = dose: 50.0 mg/kg/injection, schedule: Q01DX009 (ip), vehicle: saline with Tween-80
[17] = dose: 100.0 mg/kg/injection, schedule: Q01DX009 (ip), vehicle: saline with Tween-80
[18] = dose: 6.25 mg/kg/injection, schedule: Q01DX009 (ip), vehicle: saline with Tween-80
[19] = dose: 200.0 mg/kg/injection, schedule: Q01DX009 (ip), vehicle: saline with Tween-80

For CCC1=C[C@H]2CN(CCc3c([nH]c4ccccc34)[C@@](OC(C)=O)(c3cc4c(cc3OC)N(C)[C@H]3[C@@](O)(C(=O)NCCSc5ccccc5)[C@H](O)[C@]5(CC)C=CCN6CC[C@]43[C@@H]65)C2)C1, the T/C (dose: 0.25 mg/kg/injection, schedule: Q01DX009 (ip), vehicle: water) was 107 % of control, the T/C (dose: 1.0 mg/kg/injection, schedule: Q01DX009 (ip), vehicle: water) was 118 % of control and the T/C (dose: 2.0 mg/kg/injection, schedule: Q01DX009 (ip), vehicle: water) was 124 % of control.
O=NN(CCF)C(=O)N[C@H]1CCCC[C@H]1O was tested, and the T/C (dose: 7.5 mg/kg/injection, schedule: Q01DX001 (ip), vehicle: saline) was 109 % of control, the T/C (dose: 30.0 mg/kg/injection, schedule: Q01DX001 (ip), vehicle: saline) was 177 % of control and the T/C (dose: 60.0 mg/kg/injection, schedule: Q01DX001 (ip), vehicle: saline) was 209 % of control.
With CC[C@H](CC[C@@H](C)[C@H]1CC[C@H]2[C@@H]3CC=C4C[C@@H](OC(C)=O)CC[C@]4(C)[C@H]3CC[C@]12C)C(C)C the T/C [1] was 95 % of control.
With O=C1CSC(c2cccs2)N1c1nncs1 (stereo not given) the T/C [2] was 102 % of control, the T/C [3] was 92 % of control and the T/C [4] was 92 % of control. The T/C [5] was 97 % of control.
For Nc1cccc(=O)[nH]1, the T/C (dose: 25.0 mg/kg/injection, schedule: Q01DX009 (ip), vehicle: suspension in saline) was 93 % of control, the T/C (dose: 50.0 mg/kg/injection, schedule: Q01DX009 (ip), vehicle: suspension in saline) was 95 % of control and the T/C (dose: 100.0 mg/kg/injection, schedule: Q01DX009 (ip), vehicle: suspension in saline) was 94 % of control. For the same molecule, the T/C (dose: 200.0 mg/kg/injection, schedule: Q01DX009 (ip), vehicle: suspension in saline) was 94 % of control and the T/C (dose: 400.0 mg/kg/injection, schedule: Q01DX009 (ip), vehicle: suspension in saline) was 93 % of control.
C[As](C)SCCC(N)C(=O)NC(CCS[As](C)C)C(=O)O (stereo not given) was tested, and the T/C [6] was 86 % of control, the T/C [1] was 91 % of control and the T/C [2] was 96 % of control. For the same molecule, the T/C [3] was 96 % of control.
[Cl][Pt][Cl].[NH-]C(CO)C(=O)O (stereo not given) was tested, and the T/C (dose: 3.13 mg/kg/injection, schedule: Q01DX009 (ip), vehicle: water) was 98 % of control, the T/C (dose: 6.25 mg/kg/injection, schedule: Q01DX009 (ip), vehicle: water) was 106 % of control and the T/C (dose: 12.5 mg/kg/injection, schedule: Q01DX009 (ip), vehicle: water) was 116 % of control and 107 % of control. The T/C (dose: 25.0 mg/kg/injection, schedule: Q01DX009 (ip), vehicle: water) was 120 % of control and the T/C (dose: 50.0 mg/kg/injection, schedule: Q01DX009 (ip), vehicle: water) was 114 % of control.
For CCCCCCCCCCCCCCCC(=O)Nc1ccn(C2OC(CO)C(O)C2O)c(=O)n1 (stereo not given), the T/C [7] was 98 % of control, the T/C [8] was 157 % of control and the T/C [9] was 180 % of control.
With OCC1(CO)COC2(CCCCC2)N1 the T/C [7] was 95 % of control, the T/C (dose: 12.5 mg/kg/injection, schedule: Q01DX009 (ip), vehicle: saline) was 119 % of control and 96 % of control and 103 % of control and the T/C [8] was 114 % of control and 102 % of control and 104 % of control. For the same molecule, the T/C [9] was 114 % of control and 96 % of control and 104 % of control, the T/C [10] was 112 % of control and 94 % of control and 104 % of control and the T/C [11] was 111 % of control and 99 % of control. The T/C [12] was 109 % of control and 93 % of control.
CC(=O)C1=C(O)C2(O)C(=O)c3c(c(C)c4ccc(C)c(O)c4c3O)CC2C(N)C1=O (stereo not given) was tested, and the T/C (dose: 3.75 mg/kg/injection, schedule: Q01DX009 (ip), vehicle: saline + alcohol) was 109 % of control, the T/C (dose: 7.3 mg/kg/injection, schedule: Q01DX009 (ip), vehicle: saline + alcohol) was 120 % of control and the T/C (dose: 7.5 mg/kg/injection, schedule: Q01DX009 (ip), vehicle: saline + alcohol) was 114 % of control.
CC(NC(=O)C(CO)NC(=O)CN)C(=O)O (stereo not given) was tested, and the T/C [4] was 98 % of control, the T/C [5] was 98 % of control and the T/C [13] was 98 % of control.
For C=C1C(=O)OC2CC(C)C3C4OC4C(O)C3(C)C(O)C12 (stereo not given), the T/C (dose: 0.4 mg/kg/injection, schedule: Q01DX009 (ip), vehicle: saline) was 104 % of control, the T/C (dose: 0.8 mg/kg/injection, schedule: Q01DX009 (ip), vehicle: saline) was 110 % of control and the T/C (dose: 1.56 mg/kg/injection, schedule: Q01DX009 (ip), vehicle: saline) was 108 % of control. For the same molecule, the T/C (dose: 3.13 mg/kg/injection, schedule: Q01DX009 (ip), vehicle: saline) was 124 % of control.
O=[N+]([O-])c1ccc(N2CCOCC2)c2c1no[n+]2[O-] was tested, and the T/C [14] was 99 % of control, the T/C [15] was 101 % of control and the T/C [16] was 98 % of control. For the same molecule, the T/C [17] was 104 % of control.
In the case of O=C(CC(=O)C(F)(F)F)c1csc2ccccc12, the T/C (dose: 3.12 mg/kg/injection, schedule: Q01DX009 (ip), vehicle: Klucel (hydroxypropylcellulose) (HPC)) is reported as 112 % of control, the T/C [6] is reported as 89 % of control and the T/C [1] is reported as 103 % of control. The T/C [2] was 113 % of control, the T/C [3] was 100 % of control and the T/C [4] was 87 % of control.
For CCCCC(=O)OCC1OC(n2cnc3c(=S)nc[nH]c32)C(OC(=O)CCCC)C1OC(=O)CCCC (stereo not given), the T/C [18] was 102 % of control, the T/C [14] was 105 % of control and the T/C [15] was 108 % of control. The T/C [16] was 92 % of control.
For C/C(=N\NC(N)=O)c1cccc(/C(C)=N/NC(N)=O)n1, the T/C [18] was 93 % of control, the T/C [14] was 96 % of control and the T/C [15] was 87 % of control. The T/C [16] was 90 % of control.
For O=C(O)CNC(=O)C(CSCc1ccccc1)NC(=O)OCc1ccccc1 (stereo not given), the T/C [3] was 95 % of control, the T/C [16] was 95 % of control and the T/C [4] was 107 % of control. The T/C [17] was 88 % of control, the T/C [5] was 102 % of control and the T/C [19] was 90 % of control.
For S=C1CCCCN1, the T/C (dose: 25.0 mg/kg/injection, schedule: Q01DX009 (ip), vehicle: distilled water + alcohol) was 107 % of control, the T/C (dose: 50.0 mg/kg/injection, schedule: Q01DX009 (ip), vehicle: distilled water + alcohol) was 98 % of control and the T/C (dose: 100.0 mg/kg/injection, schedule: Q01DX009 (ip), vehicle: distilled water + alcohol) was 107 % of control. The T/C (dose: 200.0 mg/kg/injection, schedule: Q01DX009 (ip), vehicle: distilled water + alcohol) was 101 % of control.
In the case of CCCC(NC(=O)C(C)N)C(=O)O (stereo not given), the T/C [3] is reported as 106 % of control, the T/C [4] is reported as 112 % of control and the T/C [5] is reported as 92 % of control. For the same molecule, the T/C [13] was 98 % of control.
In the case of Cc1cc(O)c(Cl)cc1Cl, the T/C [10] is reported as 92 % of control, the T/C [11] is reported as 87 % of control and the T/C [12] is reported as 90 % of control.
c1ccc([Te][Te]c2ccccc2)cc1 was tested, and the T/C (dose: 3.0 mg/kg/injection, schedule: Q01DX009 (ip), vehicle: saline with Tween-80) was 92 % of control and 94 % of control, the T/C (dose: 6.0 mg/kg/injection, schedule: Q01DX009 (ip), vehicle: saline with Tween-80) was 98 % of control and 100 % of control and 106 % of control and the T/C (dose: 12.0 mg/kg/injection, schedule: Q01DX009 (ip), vehicle: saline with Tween-80) was 112 % of control and 122 % of control and 98 % of control. For the same molecule, the T/C (dose: 24.0 mg/kg/injection, schedule: Q01DX009 (ip), vehicle: saline with Tween-80) was 114 % of control and 121 % of control and 102 % of control and the T/C (dose: 48.0 mg/kg/injection, schedule: Q01DX009 (ip), vehicle: saline with Tween-80) was 113 % of control.
For CC(=O)Oc1c[nH]c(=O)[nH]c1=O, the T/C (dose: 12.5 mg/kg/injection, schedule: Q01DX009 (ip), vehicle: distilled water + Tween-80) was 99 % of control, the T/C [14] was 97 % of control and the T/C (dose: 25.0 mg/kg/injection, schedule: Q01DX009 (ip), vehicle: distilled water + Tween-80) was 103 % of control. The T/C [15] was 98 % of control, the T/C (dose: 50.0 mg/kg/injection, schedule: Q01DX009 (ip), vehicle: distilled water + Tween-80) was 103 % of control and the T/C [16] was 98 % of control. For the same molecule, the T/C (dose: 100.0 mg/kg/injection, schedule: Q01DX009 (ip), vehicle: distilled water + Tween-80) was 102 % of control, the T/C [17] was 90 % of control and the T/C (dose: 200.0 mg/kg/injection, schedule: Q01DX009 (ip), vehicle: distilled water + Tween-80) was 98 % of control. For the same molecule, the T/C [19] was 95 % of control, the T/C (dose: 400.0 mg/kg/injection, schedule: Q01DX009 (ip), vehicle: distilled water + Tween-80) was 92 % of control and the T/C (dose: 400.0 mg/kg/injection, schedule: Q01DX009 (ip), vehicle: saline with Tween-80) was 98 % of control.
CC(C)(C)Oc1ccc(CC(NC(=O)OCC2c3ccccc3-c3ccccc32)C(=O)O)cc1 (stereo not given) was tested, and the T/C [3] was 107 % of control, the T/C [4] was 108 % of control and the T/C [5] was 105 % of control.
